Source: PMC8806001 (ACS Pharmacology & Translational Science, 2022)

Assays:
SARS-CoV PL^pro = details: read-out: IC50 against SARS-CoV PL^pro; cited from earlier work
SARS-CoV-2 PL^pro [1] = target: T1, SARS-CoV-2 PL^pro (Severe acute respiratory syndrome coronavirus 2, UniProt P0DTD1); experiment: cell-based
SARS-CoV-2 PL^pro [2] = target: T1, SARS-CoV-2 PL^pro; type: biochemical; details: 200 nM PL^pro, 5 mM DTT, pH 7.5, 30 °C; highest concentration 60 μM
SARS-CoV-2 PL^pro [3] = target: T1, SARS-CoV-2 PL^pro; experiment: Thermal shift binding assay; details: effect on stability of PL^pro
MERS-CoV PL^pro = details: read-out: IC50 against MERS-CoV PL^pro; cited from earlier work

SMILES: Sc1ncnc2nc[nH]c12 [6-mercaptopurine]
- IC50 (SARS-CoV PL^pro): 21.6 µM
- FlipGFP EC50 (SARS-CoV-2 PL^pro [1]): not active
- Validation FRET IC50 (SARS-CoV-2 PL^pro [2]): not active
- TSA binding result (in words) (SARS-CoV-2 PL^pro [3]): not active
- IC50 (MERS-CoV PL^pro): 26.9 µM

SMILES: Nc1nc2nc[nH]c2c(=S)[nH]1 [6-thioguanine]
- IC50 (SARS-CoV PL^pro): 5 µM
- FlipGFP EC50 (SARS-CoV-2 PL^pro [1]): not active
- TSA binding result (in words) (SARS-CoV-2 PL^pro [3]): did not show binding
- IC50 (MERS-CoV PL^pro): 24.4 µM

SMILES: C[C@H]1COC2=C1C(=O)C(=O)c1c2ccc2c1CCCC2(C)C [Cryptotanshinone]
- FlipGFP EC50 (SARS-CoV-2 PL^pro [1]): not active
- TSA binding result (in words) (SARS-CoV-2 PL^pro [3]): destabilization

SMILES: Cc1cccc2c3c(ccc12)C1=C(C(=O)C3=O)[C@@H](C)CO1 [Dihydrotanshinone I]
- FlipGFP EC50 (SARS-CoV-2 PL^pro [1]): not active
- TSA binding result (in words) (SARS-CoV-2 PL^pro [3]): did not bind

SMILES: Cc1coc2c1C(=O)C(=O)c1c-2ccc2c1CCCC2(C)C [Tanshinone IIA]
- FlipGFP EC50 (SARS-CoV-2 PL^pro [1]): not active
- EC50 (SARS-CoV-2 PL^pro [1]; FlipGFP EC50): > 20 µM
- TSA binding result (in words) (SARS-CoV-2 PL^pro [3]): denaturation of the protein (no melting peak)

SMILES: Cc1coc2c1C(=O)C(=O)c1c-2ccc2c(C)cccc12 [Tanshinone I]
- FlipGFP EC50 (SARS-CoV-2 PL^pro [1]): not active
- TSA binding result (in words) (SARS-CoV-2 PL^pro [3]): destabilization

SMILES: COCCn1c2c([n+](Cc3cnccn3)c1C)C(=O)c1ccccc1C2=O [YM155]
- FlipGFP EC50 (SARS-CoV-2 PL^pro [1]): not conclusive
- TSA binding result (in words) (SARS-CoV-2 PL^pro [3]): no effect
- Cytotoxicity in FlipGFP assay (in words) (293T cells): cytotoxic
